Experimental data reported in PubChem BioAssay AID1963976 (Molecular Pharmacology Branch, DTP, NCI, 2024).
pIC50: −log10 of the molar value.

Tested on: 435261-313-R-J1-PDC tumor spheroid viability
Test: Anticancer human tumor 435261-313-R-J1-PDC patient-derived colon adenocarcinoma cell line growth inhibition [PI3K]
Conditions: spheroids with HUVEC and MSC; for pIC50: curve of first compound; for viability, T/C: stronger effect = lower value
Text: Combinatorial screen of targeted agents with the PI3K inhibitors inavolisib, alpelisib, duvelisib, and copanlisib in multi-cell type tumor spheroids
A high-throughput screen of multi-cell type tumor spheroids was designed to identify active combinations of targeted small molecules and PI3K pathway inhibitors. Complex spheroids include a stromal component modeled by human endothelial cells (HUVEC) and fibroblasts modeled by human mesenchymal stem cells (MSCs). The concentration ranges selected for each drug and investigational agent were based upon clinically achievable concentrations if the clinical Cmax of the agent was known.
Compounds. The drugs and investigational agents: inavolisib (NSC800729), alpelisib (NSC765974), duvelisib (NSC772469), copanlisib (NSC816437), ipatasertib (NSC767898), afuresertib (NSC778305), talazoparib (NSC767125), sapanisertib (NSC764658), selumetinib (NSC741078), tovorafenib (DAY101, NSC766906), vemurafenib (NSC761431), ravoxertinib (NSC781343), sotorasib (NSC818433), MRTX1133 (NSC 836407), abemaciclib (NSC 768073), palbociclib (NSC758247), venetoclax (NSC 766270), SY5609 (NSC837396), enzalutamide (NSC755605), and darolutamide (NSC825331), were obtained from the National Cancer Institute (NCI) Developmental Therapeutics Program Chemical Repository. The FDA-approved anticancer drug set is available from the NCI Developmental Therapeutics Program. […] The stock solutions were prepared in dimethyl sulfoxide (DMSO, Sigma-Aldrich, St. Louis, MO, cat. D2650) at 800-fold the tested concentration and stored at -70 degrees C prior to their use. All drugs and investigational agents were tested over a range starting from a high concentration at or near the clinical Cmax and decreasing in half-log increments. If the clinical Cmax for an agent had not been determined, the highest concentration tested was 10 microM.
Cell Culture. All cells were maintained in an incubator at 37 degrees C and 5% CO2 with 95% humidity. The PDC lines were cultured according to standard operating procedures established by the NCI PDMR (https://pdmr.cancer.gov/sops/default.htm). All PDCs were thawed and cultured in Matrigel-coated flasks prepared with a working solution of 1X Ham's F-12 nutrient mix, without supplementation (Invitrogen, Waltham, MA, cat. 11765054), 100 U/mL penicillin-streptomycin (Invitrogen, cat. 15140122), and 2.5% Matrigel (Corning Inc., Corning, NY, cat. 354248) for the first three passages. The 354836-022-R-J1-PDC, 475296-252-R-J1-PDC, and 997726-040-R-J2-PDC lines were cultured in 6A media, which includes advanced DMEM/F-12 (Thermo Fisher Scientific, cat. 12634028), 10 mM HEPES (Thermo Fisher Scientific, cat. 15630080), 1X GlutaMAX supplement (Thermo Fisher Scientific, cat. 35050061), 0.1 mg/mL primocin (InvivoGen, San Diego, CA, cat. ant-pm-2), 10% defined fetal bovine serum, heat inactivated (HyClone Laboratories Inc., Logan, UT, cat. SH30070.03HI), 50% L-WRN conditioned media (ATCC, cat. CRL-3276), 1.25 mM N-Acetyl-L-cysteine (Sigma-Aldrich, cat. A9165), 10 mM nicotinamide (Sigma-Aldrich, cat. N0636), 1X B-27 supplement (Thermo Fisher Scientific, cat. 17504044), 1X N-2 supplement (Thermo Fisher Scientific, cat. 17502048), and 10 microM Y-27632 dihydrochloride (Tocris Bioscience, Bristol, United Kingdom, cat. 1254). The 624824-186-R-J2-PDC line was cultured in 6C/Colon 1B media, which includes all 6A media components plus 50 ng/mL human EGF recombinant protein (Thermo Fisher Scientific, cat. PHG0311). […]

[1] = second compound 0.00316 µM, first compound 0.0316 µM
[2] = second compound 0.00316 µM, first compound 0.1 µM
[3] = second compound 0.01 µM, first compound 0.0316 µM
[4] = second compound 0.01 µM, first compound 0.1 µM
[5] = second compound 0.0316 µM, first compound 0.0316 µM
[6] = second compound 0.0316 µM, first compound 0.1 µM
[7] = second compound 0.1 µM, first compound 0.0316 µM
[8] = second compound 0.1 µM, first compound 0.1 µM
[9] = second compound 0.316 µM, first compound 0.0316 µM
[10] = second compound 0.316 µM, first compound 0.1 µM
[11] = second compound 1 µM, first compound 0.0316 µM
[12] = second compound 1 µM, first compound 0.1 µM

CC(C)NCC(C(=O)N1CCN(c2ncnc3c2C(C)CC3O)CC1)c1ccc(Cl)cc1 (centres undefined) + CC(Nc1ccc2c(c1)OCCn1cc(N3C(=O)OCC3C(F)F)nc1-2)C(N)=O
pIC50 (second compound 0.00316 µM): 5.29 | pIC50 (second compound 0.01 µM): 5.43 | pIC50 (second compound 0.0316 µM): 5.61 | pIC50 (second compound 0.1 µM): > 7.50 | pIC50 (second compound 0.316 µM): > 7.50 | pIC50 (second compound 1 µM): > 7.50 | viability, T/C [1]: 76.3% | viability, T/C [2]: 77.9% | viability, T/C (second compound 0.00316 µM, first compound 0.316 µM): 69.5% | viability, T/C (second compound 0.00316 µM, first compound 1 µM): 72.3% | viability, T/C (second compound 0.00316 µM, first compound 3.16 µM): 63.6% | viability, T/C (second compound 0.00316 µM, first compound 10 µM): 31.3% | viability, T/C [3]: 88.2% | viability, T/C [4]: 94.7% | viability, T/C (second compound 0.01 µM, first compound 0.316 µM): 73.6% | viability, T/C (second compound 0.01 µM, first compound 1 µM): 80.1% | viability, T/C (second compound 0.01 µM, first compound 3.16 µM): 54.7% | viability, T/C (second compound 0.01 µM, first compound 10 µM): 18.2% | viability, T/C [5]: 62.3% | viability, T/C [6]: 56.3% | viability, T/C (second compound 0.0316 µM, first compound 0.316 µM): 50.5% | viability, T/C (second compound 0.0316 µM, first compound 1 µM): 60.8% | viability, T/C (second compound 0.0316 µM, first compound 3.16 µM): 47.3% | viability, T/C (second compound 0.0316 µM, first compound 10 µM): 13.3% | viability, T/C [7]: 48.6% | viability, T/C [8]: 28.7% | viability, T/C (second compound 0.1 µM, first compound 0.316 µM): 34.8% | viability, T/C (second compound 0.1 µM, first compound 1 µM): 31.8% | viability, T/C (second compound 0.1 µM, first compound 3.16 µM): 24.7% | viability, T/C (second compound 0.1 µM, first compound 10 µM): 12.6% | viability, T/C [9]: 21% | viability, T/C [10]: 21.4% | viability, T/C (second compound 0.316 µM, first compound 0.316 µM): 18.4% | viability, T/C (second compound 0.316 µM, first compound 1 µM): 18.7% | viability, T/C (second compound 0.316 µM, first compound 3.16 µM): 19% | viability, T/C (second compound 0.316 µM, first compound 10 µM): 10.6% | viability, T/C [11]: 18.1% | viability, T/C [12]: 15.9% | viability, T/C (second compound 1 µM, first compound 0.316 µM): 13.8% | viability, T/C (second compound 1 µM, first compound 1 µM): 18.4% | viability, T/C (second compound 1 µM, first compound 3.16 µM): 17.1% | viability, T/C (second compound 1 µM, first compound 10 µM): 10.8%

Cn1ncnc1[C@H]1c2n[nH]c(=O)c3cc(F)cc(c23)N[C@@H]1c1ccc(F)cc1 + CC(Nc1ccc2c(c1)OCCn1cc(N3C(=O)OCC3C(F)F)nc1-2)C(N)=O
pIC50 (second compound 0.00316 µM): < 7.00 | pIC50 (second compound 0.01 µM): < 7.00 | pIC50 (second compound 0.0316 µM): 7.36 | pIC50 (second compound 0.1 µM): 9.23 | pIC50 (second compound 0.316 µM): > 9.50 | pIC50 (second compound 1 µM): > 9.50 | viability, T/C (second compound 0.00316 µM, first compound 0.000316 µM): 105% | viability, T/C (second compound 0.00316 µM, first compound 0.001 µM): 88.5% | viability, T/C (second compound 0.00316 µM, first compound 0.00316 µM): 102% | viability, T/C (second compound 0.00316 µM, first compound 0.01 µM): 96.3% | viability, T/C [1]: 83.9% | viability, T/C [2]: 69.4% | viability, T/C (second compound 0.01 µM, first compound 0.000316 µM): 74.4% | viability, T/C (second compound 0.01 µM, first compound 0.001 µM): 85.5% | viability, T/C (second compound 0.01 µM, first compound 0.00316 µM): 81.7% | viability, T/C (second compound 0.01 µM, first compound 0.01 µM): 95.8% | viability, T/C [3]: 68% | viability, T/C [4]: 50.2% | viability, T/C (second compound 0.0316 µM, first compound 0.000316 µM): 67.4% | viability, T/C (second compound 0.0316 µM, first compound 0.001 µM): 81.3% | viability, T/C (second compound 0.0316 µM, first compound 0.00316 µM): 92.6% | viability, T/C (second compound 0.0316 µM, first compound 0.01 µM): 86.1% | viability, T/C [5]: 53.6% | viability, T/C [6]: 40.4% | viability, T/C (second compound 0.1 µM, first compound 0.000316 µM): 55.6% | viability, T/C (second compound 0.1 µM, first compound 0.001 µM): 42.9% | viability, T/C (second compound 0.1 µM, first compound 0.00316 µM): 41.9% | viability, T/C (second compound 0.1 µM, first compound 0.01 µM): 39.4% | viability, T/C [7]: 36.1% | viability, T/C [8]: 30.7% | viability, T/C (second compound 0.316 µM, first compound 0.000316 µM): 21.6% | viability, T/C (second compound 0.316 µM, first compound 0.001 µM): 20.8% | viability, T/C (second compound 0.316 µM, first compound 0.00316 µM): 26.2% | viability, T/C (second compound 0.316 µM, first compound 0.01 µM): 19.5% | viability, T/C [9]: 20.6% | viability, T/C [10]: 17.1% | viability, T/C (second compound 1 µM, first compound 0.000316 µM): 18.3% | viability, T/C (second compound 1 µM, first compound 0.001 µM): 17.5% | viability, T/C (second compound 1 µM, first compound 0.00316 µM): 17% | viability, T/C (second compound 1 µM, first compound 0.01 µM): 20.7% | viability, T/C [11]: 20.2% | viability, T/C [12]: 12.5%
